This note sets out measurements from patent publication US20040058957A1, “Benzothiophene derivatives and herbicidal compositions containing the same” (priority 2000, published 2004).

For series [1], the system named is Scirpus juncoides. The series can be described thus: Submersion test, treatment 3 days after transplantation: herbicidal effect. The class given is in vivo. The note with it: rated 30 days after application. The procedure: (§1) A mixture consisting of 57 parts by weight of talc and 40 parts by weight of bentonite as carrier and 3 parts by weight of sodium alkylbenzenesulfonate as surfactant was pulverized and mixed uniformly to obtain a carrier for wettable powder. Each herbicidal composition was prepared by uniformly pulverizing and mixing 90 parts by weight of the carrier for wettable powder and 10 parts by weight of the benzothiophene derivative produced in each example.
(§2) Seeds of Scirpus juncoides were sowed onto paddy field soil in a Wagner pot of 1/2000 are. Then, rice seedlings of 2.5 leaf stage were transplanted in the soil. Water was pored into the pot so as to submerge the soil at a depth of 3 cm. The pot was placed in a greenhouse maintained at 20 to 25° C. for vegetation. After 3 days from transplantation of the rice seedlings, a predetermined amount of the herbicidal composition prepared in the step [1] was applied to the pot. After 30 days from the application of the herbicidal composition, the herbicidal effect and injury to the paddy rice were determined.
(§3) The herbicidal effect and the injury to crops in the above tests (1) and (2) were evaluated based on the following ratings.
(§4) The degree of weed control (%) was calculated from the weights of the above-ground parts of fresh weeds in the treated area and the untreated area using the following equation:
(§5) Degree of weed control (%)=[1−(weight of weeds in treated area)/(weight of weeds in untreated area)]×100
(§6) The herbicidal effect was determined according to the following ratings: […]

Series [2] has as its system Scirpus juncoides. Kind of series: Submersion test, treatment 10 days after transplantation: herbicidal effect. The class given is in vivo. The note with it: rated 30 days after application. As for the experimental part:
as §1
as §2, with “vegetation. After 10 days from” for “vegetation. After 3 days from”
as §3, §4, §5, §6

The subject of series [3] is paddy rice. Kind of series: Submersion test, treatment 3 days after transplantation: injury to paddy rice. The class given is in vivo. Details: key: 0: No injury; 1: Substantially no injury; 2: Slight injury; 3: Some injury; 4: Remarkable injury; 5: Almost all crops dead. The note with it: rated 30 days after application. The procedure: A mixture consisting of 57 parts by weight of talc and 40 parts by weight of bentonite as carrier and 3 parts by weight of sodium alkylbenzenesulfonate as surfactant was pulverized and mixed uniformly to obtain a carrier for wettable powder. […] Then, rice seedlings of 2.5 leaf stage were transplanted in the soil. Water was pored into the pot so as to submerge the soil at a depth of 3 cm. The pot was placed in a greenhouse maintained at 20 to 25° C. for vegetation. […] After 30 days from the application of the herbicidal composition, the herbicidal effect and injury to the paddy rice were determined. […] The injury to crops was evaluated according to the following ratings: [table]

The term melting point denotes the temperature of the solid-liquid transition. In turn, `CSC1Cc2c(ccc(C(=O)C3C(=O)CCCC3=O)c2Cl)S1(=O)=O` (stereo not drawn) [Compound No. 1, 4-chloro-2-methylthio-5-(1,3-dioxocyclohex-2-yl)carbonyl-2,3-dihydrobenzothiophene 1,1-dioxide] returned a melting point of 174.7 to 175.1 °C. Besides, the “Herbicidal effect Scirpus juncoides” value in series [1] (application rate 100 g/ha) was 5 (90% or higher (almost completely dead)). Further, the “Herbicidal effect Scirpus juncoides” value in series [1] (application rate 200 g/ha) is 5 (90% or higher (almost completely dead)). The “Herbicidal effect Scirpus juncoides” value in series [2] (application rate 100 g/ha) was 5 (90% or higher (almost completely dead)). The “Herbicidal effect Scirpus juncoides” value in series [2] (application rate 200 g/ha) is 5 (90% or higher (almost completely dead)). In series [3] (application rate 100 g/ha), the Injury paddy rice turned out to be 0. The same compound returned an Injury paddy rice in series [3] (application rate 200 g/ha) of 0.

The compound `CSC1Cc2c(ccc(C(=O)C3C(=O)CCCC3=O)c2C)S1(=O)=O` (stereo not drawn) [Compound No. 10, 4-methyl-2-methylthio-5-(1,3-dioxocyclohex-2-yl)carbonyl-2,3-dihydrobenzothiophene 1,1-dioxide] registered a melting point of 192.7 to 193.2 °C. Also, the “Herbicidal effect Scirpus juncoides” value in series [1] (application rate 100 g/ha) is 5 (90% or higher (almost completely dead)). In addition, the “Herbicidal effect Scirpus juncoides” value in series [1] (application rate 200 g/ha) is 5 (90% or higher (almost completely dead)). Moreover, the “Herbicidal effect Scirpus juncoides” value in series [2] (application rate 100 g/ha) is on record as 5 (90% or higher (almost completely dead)). For the same compound, the “Herbicidal effect Scirpus juncoides” value in series [2] (application rate 200 g/ha) is on record as 5 (90% or higher (almost completely dead)). This compound came in with an Injury paddy rice in series [3] (application rate 100 g/ha) of 0. This compound came in with an Injury paddy rice in series [3] (application rate 200 g/ha) of 0.

On to `CSC1Cc2c(ccc(C(=O)C3C(=O)CCCC3=O)c2C(F)(F)F)S1(=O)=O` (stereo not drawn) [Compound No. 11, 2-methylthio-4-trifluoromethyl-5-(1,3-dioxocyclohex-2-yl)carbonyl-2,3-dihydrobenzothiophene 1,1-dioxide], for which the melting point was 206.1 to 211.6 °C. Further, the “Herbicidal effect Scirpus juncoides” value in series [1] (application rate 100 g/ha) is reported as 5 (90% or higher (almost completely dead)). Also, the “Herbicidal effect Scirpus juncoides” value in series [1] (application rate 200 g/ha) is given as 5 (90% or higher (almost completely dead)). Besides, the “Herbicidal effect Scirpus juncoides” value in series [2] (application rate 100 g/ha) is 5 (90% or higher (almost completely dead)). In addition, the “Herbicidal effect Scirpus juncoides” value in series [2] (application rate 200 g/ha) is 5 (90% or higher (almost completely dead)). Also, the Injury paddy rice in series [3] (application rate 100 g/ha) came to 0. In series [3] (application rate 200 g/ha), this compound came in with an Injury paddy rice of 0.

In the case of `CSC1Cc2c(ccc(C(=O)C3=C(n4cccn4)CCCC3=O)c2Cl)S1(=O)=O` (stereo not drawn) [Compound No. 39, 4-chloro-2-methylthio-5-[3-(pyrazol-1-yl)-1-oxo-2-cyclohexen-2-yl]carbonyl-2,3-dihydrobenzothiophene 1,1-dioxide], the “Herbicidal effect Scirpus juncoides” value is 4 (70% or higher but less than 90%) in series [1] (application rate 100 g/ha), 5 (90% or higher (almost completely dead)) in series [1] (application rate 200 g/ha), 4 (70% or higher but less than 90%) in series [2] (application rate 100 g/ha) and 5 (90% or higher (almost completely dead)) in series [2] (application rate 200 g/ha). Besides, the Injury paddy rice in series [3] (application rate 100 g/ha) and in series [3] (application rate 200 g/ha) was 0 throughout.

For `CSC1Cc2c(ccc(C(=O)C3C(=O)CCCC3=O)c2Br)S1(=O)=O` (stereo not drawn) [Compound No. 41, 4-bromo-2-methylthio-5-(1,3-dioxocyclohex-2-yl)carbonyl-2,3-dihydrobenzothiophene 1,1-dioxide], the “Herbicidal effect Scirpus juncoides” value in series [1] (application rate 100 g/ha), in series [1] (application rate 200 g/ha), in series [2] (application rate 100 g/ha) and in series [2] (application rate 200 g/ha) was 5 (90% or higher (almost completely dead)) throughout. Besides, the Injury paddy rice in series [3] (application rate 100 g/ha) and in series [3] (application rate 200 g/ha) was 0 in each case.

Regarding `COCCSC1Cc2c(Cl)c(C(=O)C3C(=O)CCCC3=O)cc(C)c2S1(=O)=O` (stereo not drawn) [Compound No. 45, 4-chloro-7-methyl-2-(2-methoxyethyl)thio-5-(1,3-dioxocyclohex-2-yl)carbonyl-2,3-dihydrobenzothiophene 1,1-dioxide], the “Herbicidal effect Scirpus juncoides” value in series [1] (application rate 100 g/ha), in series [1] (application rate 200 g/ha), in series [2] (application rate 100 g/ha) and in series [2] (application rate 200 g/ha) was 5 (90% or higher (almost completely dead)) throughout. For the same compound, the Injury paddy rice in series [3] (application rate 100 g/ha) and in series [3] (application rate 200 g/ha) was 0 throughout.

For `Cc1cc(C(=O)C2C(=O)CCCC2=O)c(Cl)c2c1S(=O)(=O)C(S(C)(=O)=O)C2` (stereo not drawn) [Compound No. 46, 4-chloro-7-methyl-2-methanesulfonyl-5-(1,3-dioxocyclohex-2-yl)carbonyl-2,3-dihydrobenzothiophene 1,1-dioxide], the “Herbicidal effect Scirpus juncoides” value in series [1] (application rate 100 g/ha) is listed as 5 (90% or higher (almost completely dead)); in series [1] (application rate 200 g/ha), 5 (90% or higher (almost completely dead)); in series [2] (application rate 100 g/ha) it was 4 (70% or higher but less than 90%); in series [2] (application rate 200 g/ha) it was 5 (90% or higher (almost completely dead)). Also, the Injury paddy rice in series [3] (application rate 100 g/ha) and in series [3] (application rate 200 g/ha) was 0 each time.

As for `CSC1Cc2c(Cl)c(C(=O)C3=C(Cl)CCCC3=O)cc(C)c2S1(=O)=O` (stereo not drawn) [Compound No. 49, 4-chloro-7-methyl-2-methylthio-5-(3-chloro-1-oxo-2-cyclohexen-2-yl)carbonyl-2,3-dihydrobenzothiophene 1,1-dioxide], the “Herbicidal effect Scirpus juncoides” value in series [1] (application rate 100 g/ha), in series [1] (application rate 200 g/ha), in series [2] (application rate 100 g/ha) and in series [2] (application rate 200 g/ha) was 5 (90% or higher (almost completely dead)) in each case. Besides, the Injury paddy rice in series [3] (application rate 100 g/ha) and in series [3] (application rate 200 g/ha) was 0 throughout.

On to `CSC1Cc2c(Cl)c(C(=O)C3=C(SCCO)CCCC3=O)cc(C)c2S1(=O)=O` (stereo not drawn) [Compound No. 50, 4-chloro-7-methyl-2-methylthio-5-[3-(2-hydroxyethyl)thio-1-oxo-2-cyclohexen-2-yl]carbonyl-2,3-dihydrobenzothiophene 1,1-dioxide], for which the “Herbicidal effect Scirpus juncoides” value in series [1] (application rate 100 g/ha), in series [1] (application rate 200 g/ha), in series [2] (application rate 100 g/ha) and in series [2] (application rate 200 g/ha) was 5 (90% or higher (almost completely dead)) each time. Also, the Injury paddy rice in series [3] (application rate 100 g/ha) and in series [3] (application rate 200 g/ha) was 0 each time.

For `CSC1Cc2c(Cl)c(C(=O)C3=C(SCCOC(=O)CCl)CCCC3=O)cc(C)c2S1(=O)=O` (stereo not drawn) [Compound No. 51, 4-chloro-7-methyl-2-methylthio-5-[3-(2-chloroacetoxyethyl)thio-1-oxo-2-cyclohexen-2-yl]carbonyl-2,3-dihydrobenzothiophene 1,1-dioxide], the “Herbicidal effect Scirpus juncoides” value in series [1] (application rate 100 g/ha) is listed as 4 (70% or higher but less than 90%); in series [1] (application rate 200 g/ha), 5 (90% or higher (almost completely dead)); in series [2] (application rate 100 g/ha) it was 4 (70% or higher but less than 90%); in series [2] (application rate 200 g/ha), 5 (90% or higher (almost completely dead)). For the same compound, the Injury paddy rice in series [3] (application rate 100 g/ha) and in series [3] (application rate 200 g/ha) was 0 throughout.

As to `CSC1Cc2c(Cl)c(C(=O)C3=C(n4cccn4)CCCC3=O)cc(C)c2S1(=O)=O` (stereo not drawn) [Compound No. 52, 4-chloro-7-methyl-2-methylthio-5-[3-(pyrazol-1-yl) -1-oxo-2-cyclohexen-2-yl]carbonyl-2,3-dihydrobenzothiophene 1,1-dioxide], the “Herbicidal effect Scirpus juncoides” value in series [1] (application rate 100 g/ha) is given as 4 (70% or higher but less than 90%); in series [1] (application rate 200 g/ha), 5 (90% or higher (almost completely dead)); in series [2] (application rate 100 g/ha), 4 (70% or higher but less than 90%); in series [2] (application rate 200 g/ha) it was 5 (90% or higher (almost completely dead)). Also, the Injury paddy rice in series [3] (application rate 100 g/ha) and in series [3] (application rate 200 g/ha) was 0 throughout.
